Data published in patent publication US20070197523A1, “CALCIUM CHANNEL ANTAGONISTS” (ICAGEN, INC., priority 2005, published 2007).

Tested on: T-type calcium channels
Experiment: T-type calcium channel inhibitory activity (fluorometric FLIPR Fluo-4 and whole cell patch clamp)
Type: cell-based, mammalian
Conditions: inhibition of T-type calcium channels; cells natively expressing or HEK-293 cells expressing recombinant channels
Procedure: T-type calcium channel inhibitory activity of some compounds of the invention was evaluated using both fluorometric as well as electrophysiological measurement methodologies, which are known to those skilled in the art. Fluorescence measurement of changes in intracellular calcium due to entry of calcium through T-type calcium channels was assessed using calcium sensitive fluorescent dyes Fluo-4 and Fluo-3. In brief, cells natively expressing T-type channels or HEK-293 cells transiently or stably expressing recombinant mammalian T-type calcium channels grown in 96-well tissue culture plates in DMEM/High glucose, Hyclone, Fetal Bovine Serum (10%), and 2 mM sodium pyruvate 2 mM (and for cells lines recombinantly expressing T-type calcium channels, G418 @ 400 mg/liter) were loaded with 4 μM Fluo-4 made up in Earls Balanced Salt Solution (EBSS). After incubation for 30 minutes at room temperature, cells were washed with low calcium (0.5 mM) EBSS to remove extracellular Fluo-4. Baseline fluorescence was measured in a FLIPR (FLuorescence Image Plate Reader) (Molecular Devices Inc) after applying test compounds at desired concentration for 5-10 minutes. The effect of test compound on calcium entry was assessed by monitoring changes in Fluo-4 fluorescence following an elevation of extracellular calcium concentration from 0.5 mM to 5 mM. […] Native cells natively expressing T-type channels or HEK-293 cells transiently or stably expressing recombinant mammalian T-type calcium channels were grown in DMEM/High glucose, Hyclone, Fetal Bovine Serum (10%), 2 mM sodium pyruvate 2 mM (and for cells lines recombinantly expressing T-type calcium channels, G418 @ 400 mg/liter) on glass coverslips in 35 mm tissue culture dishes. Experiments were performed by placing T-type calcium channels expressing cells in a recording chamber perfused with EBSS (which contains (in mM): 132 NaCl, 5.4 KCl, 1.8 CaCl2, 0.8 MgCl2, 10 Hepes, 5 glucose, pH 7.4 with NaOH) on the stage of an inverted microscope. Electrical currents were measured using the whole cell configuration of the patch clamp technique (Axopatch 200B, Axon Instruments (Molecular Devices) (see Hamill et al (1981) Pflugers Arch. 1981 391:85-100) using 2-2.5 MOhm resistance glass pipettes filled with 135 CsF, 5 CsCl, 5 NaCl, 5 EGTA, 10 HEPES, pH 7.3 with CsOH, Osmolarity ˜288 mOsm. Test compound effects were typically assessed under conditions in which approximately half of the available channels were inactivated either by an 8 second conditioning depolarization from a holding potential of −100 mV to a potential ranging from −70 mV to −60 mV or by continually holding the membrane potential at −70 mV. Test compounds were assessed for their ability to reduce the amplitude of the inward T-type calcium current elicited by a 100 ms step depolarization −20 or −30 mV.

Row | SMILES | IC50
1 | CCOc1cccc(S(=O)(=O)c2cnc(Nc3cc(NCCN(C)C)nc(C(F)(F)F)n3)s2)c1 [Example 19, N-(2-Dimethylamino-ethyl)-N′-[5-(3-ethoxy-benzenesulfonyl)-thiazol-2-yl]-2-trifluoromethyl-pyrimidine-4,6-diamine] | 1 to 1000 nM
2 | CCOc1cccc(S(=O)(=O)c2cnc(Nc3nc(C)nc(N(C)CCOC)c3F)s2)c1 [Example 13, N-[5-(3-ethoxy-benzenesulfonyl)-thiazol-2-yl]-5-fluoro-N′-(2-methoxy-ethyl)-2, N′-dimethyl-pyrimidine-4,6-diamine] | 1 to 1000 nM

Results, then the compound that gave them:

Row | IC50 | SMILES
3 | 1 to 1000 nM | CCOc1cccc(S(=O)(=O)c2cnc(Nc3cc(CCC(C)(C)N)nc(C)n3)s2)c1 [Example 36, [6-(3-Amino-3-methyl-butyl)-2-methyl-pyrimidin-4-yl]-[5-(3-ethoxy-benzenesulfonyl)-thiazol-2yl]-amine]
4 | 1 to 1000 nM | CCOc1cccc(S(=O)(=O)c2cnc(Nc3cc(NCCN(C)C)nc(C)n3)s2)c1 [Example 8, N-(2-Dimethylamino-ethyl)-N′-[5-(3-ethoxy-benzenesulfonyl)-thiazol-2-yl]-2-methyl-pyrimidine-4,6-diamine]
5 | 1 to 1000 nM | CCOc1cccc(S(=O)(=O)c2cnc(NC(=O)Cc3ccc(OC)c(OC)c3)s2)c1 [Example 1, 2-(3,4-Dimethoxy-phenyl)-N-[5-(3-ethoxy-benzenesulfonyl)-thiazol-2-yl]-acetamide]
